Values of other authors as cited in patent US6858233B2, “Simmondsin processing methods and products” (International Flora Technologies, Ltd., priority 2001, dated 2005).

Legend:
animals = settings: reported in the literature
rats = settings: relative to simmondsin, Cokelaere et al. 1996

Row | Compound | ability to cause food intake reduction (animals) | efficacy compared to simmondsin (food intake reduction) (rats)
1 | N#C/C=C1\[C@H](O[C@@H]2O[C@H](CO)[C@@H](O)[C@H](O)[C@H]2O)C[C@H](O)[C@H](O)[C@H]1O [didemethyl simmondsin] | thought not to have such efficacy | 
2 | CO[C@H]1[C@@H](OC)C[C@@H](O[C@@H]2O[C@H](CO)[C@@H](O)[C@H](O)[C@H]2O)/C(=C\C#N)[C@@H]1O [simmondsin] | significant food intake reduction | 
3 | simmondsin ferulate | significant food intake reduction | about 67%
